Data from patent publication US4973587A, “3-arylcarbonyl-1-aminoalkyl-1H-indole-containing antiglaucoma method” (Sterling Drug Inc., priority 1990, dated 1990).

Target: T1, cannabinoid receptor (CP 55940 binding sites) (Rattus norvegicus, UniProt P20272)
T1 construct: from tissue
Experiment: CP55490 binding assay (CP)
Conditions: CP55490 binding assay
From the text: (§1) Med. Assoc. 217, 1392 (1971)]. […] Opth 7, 921-923 (1975); Green and Pederson, Effect of delta-9 Tetrahydrocannabinol on Aqueous Dynamics and Ciliary Body Permeability in the Rabbit Eye., Exptl. Eye Research 15, 499-507 (1973); Colasanti, Craig and Allara, Intraocular Pressure, Ocular Toxicity and Neurotoxicity after Administration of Cannabinol or Cannibigerol, Exptl. Eye Research 39, 252-259 (1984)]. Similarly, synthetic cannabinoids also reduce intraocular pressure [Green, Symunds, Oliver and Elijah, Intraocular Pressure Following Systemic Administration of Cannabinoids, Curr. Eye Research 2, 247-253 (1982); Tiedeman, Shields, Weber, Crow, Coccetto, Harris and Howes, Ophthalmology., 88, 270-277 (1981); Colasanti et al., supra]. Cannabinoid receptor binding sites can be defined as those to which radio-labelled 4-(1,1-dimethylheptyl)-2,3'-dihydroxy-6'alpha-(3-hydroxypropyl)-1',2',3',4',5',6'-hexahydrobiphenyl (CP 55940) binds in a specific and saturable manner, and the binding sites are heterogeneously distributed in the brain [Devane, Dysarz, Johnson, Melvin and Howlett, Determination and Characterization of a Cannabinoid Receptor in Rat Brain, Molecular Pharm. 34, 605-613 (1988)]. Natural and synthetic cannabinoids and representative examples of the compounds of the present invention bind to CP 55940 binding sites. […] It is believed that agonist activity at the cannabinoid receptor mediates the anti-glaucoma actions of cannabinoids, and that agonist activity at this receptor correlates with ocular pressure lowering actions in man.

T1 sequence (P20272 whole entry): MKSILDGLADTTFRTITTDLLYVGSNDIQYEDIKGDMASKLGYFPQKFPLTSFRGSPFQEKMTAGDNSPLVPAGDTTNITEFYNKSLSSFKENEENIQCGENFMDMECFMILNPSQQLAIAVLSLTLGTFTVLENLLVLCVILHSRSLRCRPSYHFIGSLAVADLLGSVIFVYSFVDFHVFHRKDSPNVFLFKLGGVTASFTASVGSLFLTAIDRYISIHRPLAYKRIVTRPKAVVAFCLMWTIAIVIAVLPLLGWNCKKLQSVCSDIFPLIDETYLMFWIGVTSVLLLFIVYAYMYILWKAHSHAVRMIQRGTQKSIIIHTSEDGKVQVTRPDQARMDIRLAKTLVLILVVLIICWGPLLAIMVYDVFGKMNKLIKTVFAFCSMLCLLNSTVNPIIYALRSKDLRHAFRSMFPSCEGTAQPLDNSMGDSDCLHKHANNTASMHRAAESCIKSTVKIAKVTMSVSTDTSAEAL

Q: For `Cc1c(C(=O)c2csc3ccccc23)c2ccccc2n1CCN1CCOCC1` [Example 1Q], which IC50 is on record?
A: ~50 nM

Q: For `O=C(c1cccc2ccccc12)c1cn(CCN2CCOCC2)c2ccccc12` [Example 2Z], which IC50 is on record?
A: 88 nM

Q: For `COc1ccc(C(=O)c2c(C)n(CCN3CCOCC3)c3ccccc23)cc1` [Example 1B], which IC50 is on record?
A: 3000 to 10000 nM

Q: Which IC50 does the source give for `Cc1c(C(=O)c2cccc3ccccc23)c2ccccc2n1CCN1CCCC(O)C1` (centres unmarked) [Example 3D] here?
A: 200 to 500 nM

Q: Which IC50 does the source give for `Cc1c(C(=O)c2cccc3ccccc23)c2ccccc2n1CCN1CCOCC1` [Example 1AP] here?
A: 51 nM

Same assay, conditions: at 1 μM; read-out: CP % I

Q: Which inhibition at 1 µM does the source give for `COc1ccc(C(=O)c2cn(CCN3CCOCC3)c3ccccc23)cc1` [Example 1A, 3-(4-methoxybenzoyl)-1-[2-(4-morpholinyl)ethyl]1H-indole methanesulfonate monohydrate] here?
A: 59%

Q: For `COc1ccc(C(=O)c2c(C)n(CCN3CCOCC3)c3ccccc23)c(OC)c1OC` [Example 1CA], which inhibition at 1 µM is on record?
A: 70%

Tested on: intraocular pressure
Experiment: not given
Conditions: topical application or systemic injection; cited from earlier work

Q: With `CCCCCc1cc(O)c2c(c1)OC(C)(C)[C@@H]1CCC(C)=C[C@@H]21` [delta-9 tetrahydrocannabinol] as the compound, how does the intraocular pressure read?
A: reduces intraocular pressure

Tested on: mouse vas deferens
Experiment: mouse vas deferens test (MVD)
Assay type: cell-based
Conditions: Mus musculus, inhibition of contractions in mouse vas deferens preparation in vitro; active at 5.0 μM or less
From the text: as §1

Q: Which IC50 does the source give for `COc1ccc(C(=O)c2cn(CCN3CCOCC3)c3ccccc23)cc1` [Example 1A, 3-(4-methoxybenzoyl)-1-[2-(4-morpholinyl)ethyl]1H-indole methanesulfonate monohydrate] here?
A: 100 nM

Q: Which IC50 does the source give for `Cc1c(C(=O)c2csc3ccccc23)c2ccccc2n1CCN1CCOCC1` [Example 1Q] here?
A: 18 nM

Q: For `COc1ccc(C(=O)c2c(C)n(CCN3CCOCC3)c3ccccc23)c(OC)c1OC` [Example 1CA], which IC50 is on record?
A: 70 nM

Q: Which IC50 does the source give for `O=C(c1cccc2ccccc12)c1cn(CCN2CCOCC2)c2ccccc12` [Example 2Z] here?
A: 6 nM

Q: Which IC50 does the source give for `Cc1c(C(=O)c2ccc3ccccc3c2)c2ccccc2n1CCN1CCOCC1` [Example 1S] here?
A: 50 nM

Q: With `Cc1c(C(=O)c2cc3ccccc3c3ccccc23)c2ccccc2n1CCN1CCOCC1` [Example 1CG] as the compound, how does the IC50 read?
A: 170 nM

Q: Which IC50 does the source give for `Cc1c(C(=O)c2ccc(Br)c3ccccc23)c2ccccc2n1CCN1CCOCC1` [Example 2AT] here?
A: 34 nM

Q: With `Cc1c(C(=O)c2cccc(F)c2)c2ccccc2n1CCN1CCOCC1` [Example 1U] as the compound, how does the IC50 read?
A: 1900 nM

Q: For `COc1ccc(C(=O)c2c(C)n(CCCN3CCCC3)c3ccccc23)cc1` [Example 1CJ], which IC50 is on record?
A: > 10000 nM

Q: With `Cc1c(C(=O)c2cccc3ccccc23)c2ccccc2n1C(C)CN1CCOCC1` (centres unmarked) [Example 2Y] as the compound, how does the IC50 read?
A: 10 nM

Q: With `COc1ccc(C(=O)c2c(C)n(CCN3CCOCC3)c3c(OC)cccc23)cc1` [Example 1K] as the compound, how does the IC50 read?
A: 260 nM

Q: Which IC50 does the source give for `CCc1ccc(C(=O)c2c(C)n(CCN3CCOCC3)c3ccccc23)cc1` [Example 1X] here?
A: 71 nM

Q: For `Cc1c(C(=O)c2ccc(C#N)c3ccccc23)c2ccccc2n1CCN1CCOCC1` [Example 7A, 2-methyl-3-(4-cyano-1-naphthylcarbonyl)-1-[2-(4-morpholinyl)ethyl]-1H-indole], which IC50 is on record?
A: 14 nM

Q: With `O=C(c1ccc(-n2ccnc2)c2ccccc12)c1cn(CCN2CCOCC2)c2ccccc12` [Example 7C] as the compound, how does the IC50 read?
A: 8 nM

Q: For `N#Cc1ccc(C(=O)c2cn(CCN3CCOCC3)c3ccccc23)c2ccccc12` [Example 7D], which IC50 is on record?
A: 5 nM

Q: For `O=C(c1cccc2ccccc12)c1cn(CCN2CCOCC2)c2ccc(F)cc12` [Example 1CE], which IC50 is on record?
A: 7 nM

Q: For `COc1ccc(C(=O)c2c(C)n(CCN3CCCC(O)C3)c3ccccc23)cc1` (centres unmarked) [Example 3B], which IC50 is on record?
A: > 10000 nM

Q: For `Cc1c(C(=O)c2ccccc2)c2ccccc2n1C(C)CN1CCOCC1` (centres unmarked) [Example 1AK], which IC50 is on record?
A: 900 nM

Q: Which IC50 does the source give for `COc1ccc(C(=O)c2cn(C(C)CN3CCOCC3)c3ccccc23)cc1` (centres unmarked) [Example 2AU] here?
A: 3700 nM

Q: Which IC50 does the source give for `Cc1cccc2c(C(=O)c3ccccc3)cn(C(C)CN3CCOCC3)c12` (centres unmarked) [Example 2H] here?
A: 177 nM

Q: With `Cc1c(C(=O)c2ccc3cccnc3c2)c2ccccc2n1CCN1CCOCC1` [Example 2BA] as the compound, how does the IC50 read?
A: 93 nM

Q: Which IC50 does the source give for `Cc1c(C(=O)c2ccc(N)cc2)c2ccccc2n1CCN1CCOCC1` [Example 4B, 2-methyl-3-(4-aminobenzoyl)-1-[2-(4morpholinyl)ethyl]-1H-indole] here?
A: 520 nM

Q: Which IC50 does the source give for `Cc1c(C(=O)c2cc3ccccc3o2)c2ccccc2n1CCN1CCOCC1` [Example 1P] here?
A: 320 nM

Q: For `Cc1c(C(=O)c2cccc3ccccc23)c2ccccc2n1CCN1CCCC(O)C1` (centres unmarked) [Example 3D], which IC50 is on record?
A: 236 nM

Q: Which IC50 does the source give for `O=C(c1cccc2ccccc12)c1cn(CCN2CCOCC2)c2ccc(Br)cc12` [Example 1BW] here?
A: 20 nM

Q: Which IC50 does the source give for `Cc1c(C(=O)c2ccc(Cl)cc2)c2ccccc2n1CCN1CCOCC1` [Example 1AG] here?
A: 560 nM

Q: For `Cc1c(C(=O)c2ccc3ccccc3n2)c2ccccc2n1CCN1CCOCC1` [Example 2BD], which IC50 is on record?
A: 99 nM

Q: Which IC50 does the source give for `Cc1ccc2c(C(=O)c3cccc4ccccc34)cn(CCN3CCOCC3)c2c1` [Example 2AY] here?
A: 2 nM

Q: Which IC50 does the source give for `Cc1c(C(=O)c2cccc3ccccc23)c2ccccc2n1CCN1CCOCC1` [Example 1AP] here?
A: 15 nM

Q: For `COc1ccc(C(=O)c2c(C)n(CCCN3CCOCC3)c3ccccc23)cc1` [Example 1H], which IC50 is on record?
A: 360 nM

Q: With `COc1ccc(C(=O)c2c(C)n(CCN3CCOCC3)c3ccc(F)cc23)cc1` [Example 1E] as the compound, how does the IC50 read?
A: 120 nM

Q: Which IC50 does the source give for `CSc1ccc(C(=O)c2c(C)n(CCN3CCOCC3)c3ccccc23)cc1` [Example 1C] here?
A: 610 nM

Q: With `Cc1c(C(=O)c2cc3ccc4cccc5ccc(c2)c3c45)c2ccccc2n1CCN1CCOCC1` [Example 2CG] as the compound, how does the IC50 read?
A: 40 nM

Q: For `Cc1c(C(=O)c2ccnc3ccccc23)c2ccccc2n1CCN1CCOCC1` [Example 2BE], which IC50 is on record?
A: 115 nM

Same assay, conditions: inhibition of contractions in mouse vas deferens preparation in vitro; active at 5.0 μM or less

Q: For `COc1ccc(C(=O)c2c(C)n(CCN3CCOCC3)c3ccccc23)cc1` [Example 1B], which IC50 is on record?
A: 500 nM

Q: For `O=C(c1ccccc1)c1cn(CCN2CCOCC2)c2ccccc12` [Example 1CH], which IC50 is on record?
A: 1600 nM
